Data reported in patent US10316017B2, “COT modulators and methods of use thereof” (Gilead Sciences, Inc., priority 2015, dated 2019).
Like-named read-outs stand apart in the source and are kept apart here.

Assays:
[1] = tested on: TNFα production in LPS-stimulated human monocytes; assay: Cot Monocyte TNFα Cell Based Assay; details: Homo sapiens, Monocyte, read-out: EC50 TNF
In short: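 TR-FRET read-out of total secreted TNFα, normalized as % control (unstimulated = 0%, LPS-stimulated = 100%). Cells (5,000/well) were exposed to compound 1 h at 37 °C, then to 50 pg/ml LPS for a further 4 h.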

[2] = target: T1, human Cot catalytic domain (30-397 amino acids) (Homo sapiens, UniProt P41279); assay: High Throughput Cot Biochemical Assay (KinEASE TR-FRET); details: Cot KinEASE TR-FRET (HTRF) biochemical assay, 400 μM ATP; read-out: IC50 HTRF
T1 construct: Purified recombinant human Cot catalytic domain (30-397 amino acids) was purchased from Cama Biosciences; purchased Cama Biosciences (so in the source)
In short: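 TR-FRET readout: Eu-labeled phospho-specific antibody binds XL665-tagged STK3 peptide after phosphorylation by Cot (aa 30-397, 5 nM). Conditions: 400 μM ATP, 1 μM peptide, MOPS pH 7.0 buffer with MgOAc, DTT, BSA, NP-40, glycerol; 0.1% DMSO.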

[3] = TNFα in LPS-stimulated human monocytes

T1 sequence (P41279 30-397): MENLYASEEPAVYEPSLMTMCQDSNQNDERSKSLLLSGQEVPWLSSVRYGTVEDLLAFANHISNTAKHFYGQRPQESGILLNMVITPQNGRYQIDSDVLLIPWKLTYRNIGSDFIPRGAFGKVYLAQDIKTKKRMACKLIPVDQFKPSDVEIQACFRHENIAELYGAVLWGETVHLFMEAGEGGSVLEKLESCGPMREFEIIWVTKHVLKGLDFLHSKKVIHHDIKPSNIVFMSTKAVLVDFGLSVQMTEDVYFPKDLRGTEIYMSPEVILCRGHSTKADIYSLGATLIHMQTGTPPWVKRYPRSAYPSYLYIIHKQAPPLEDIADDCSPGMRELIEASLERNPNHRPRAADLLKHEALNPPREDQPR

EC50 [1, 3] | IC50 [2] | Structure (SMILES) | EC50 [1]
> 10 µM | 8.2 µM | [2H][C@](Nc1cc(Cl)c2ncc(C#N)c(NN(CC)c3ccccc3)c2c1)(c1ccc(F)cc1)c1cn(C2CC2)nn1 [Example 222, (S)-8-chloro-6-(((1-cyclopropyl-1H-1,2,3-triazol-4-yl)(4-fluorophenyl)methyl-d)amino)-4-(2-ethyl-2-phenylhydrazinyl)quinoline-3-carbonitrile] | 
0.157 µM | 0.005 µM | [2H][C@](Nc1cc(Cl)c2ncc(C#N)c(NCC(C)(C)CC)c2c1)(c1ccc(F)cc1)c1cn(C2CC2)nn1 [Example 223, (S)-8-chloro-6-(((1-cyclopropyl-1H-1,2,3-triazol-4-yl)(4-fluorophenyl)methyl-d)amino)-4-((2,2-dimethylbutyl)amino)quinoline-3-carbonitrile] | 
0.397 µM | 0.028 µM | [2H][C@](Nc1cc(C2CC2)c2ncc(C#N)c(N[C@H](CC)c3ccccc3)c2c1)(c1ccc(F)cc1)c1cn(C2CC2)nn1 [Example 224, 8-cyclopropyl-6-(((S)-(1-cyclopropyl-1H-1,2,3-triazol-4-yl)(4-fluorophenyl)methyl-d)amino)-4-(((R)-1-phenylpropyl)amino)quinoline-3-carbonitrile] | 
0.8 µM | 0.038 µM | [2H][C@](Nc1cc(Cl)c2ncc(C#N)c(NCC(C)(C)COC)c2c1)(c1ccc(F)cc1)c1cn(C2CC2)nn1 [Example 225, (S)-8-chloro-6-(((1-cyclopropyl-1H-1,2,3-triazol-4-yl)(4-fluorophenyl)methyl-d)amino)-4-((3-methoxy-2,2-dimethylpropyl)amino) quinoline-3-carbonitrile] | 
0.606 µM | 0.016 µM | [2H][C@](Nc1cc(Cl)c2ncc(C#N)c(NC[C@@H](C)c3ccccc3)c2c1)(c1ccc(F)cc1)c1cn(C2CC2)nn1 [Example 226, 8-chloro-6-(((S)-(1-cyclopropyl-1H-1,2,3-triazol-4-yl)(4-fluorophenyl)methyl-d)amino)-4-(((S)-2-phenylpropyl)amino) quinoline-3-carbonitrile] | 
0.426 µM | 0.011 µM | [2H][C@](Nc1cc(Cl)c2ncc(C#N)c(N[C@H](C)c3ccccc3)c2c1)(c1ccc(F)cc1)c1cn(C2CC2)nn1 [Example 227, 8-chloro-6-(((S)-(1-cyclopropyl-1H-1,2,3-triazol-4-yl)(4-fluorophenyl)methyl-d)amino)-4-(((R)-1-phenylethyl)amino) quinoline-3-carbonitrile] | 
> 10 µM | 2.61 µM | [2H][C@@](Nc1cc(Cl)c2ncc(C#N)c(N[C@@H]3CCCC[C@@H]3NC(=O)OC(C)(C)C)c2c1)(c1ccc(F)cc1)c1cn(C2CC2)nn1 [Example 229, tert-butyl ((1S,2R)-2-((8-chloro-3-cyano-6-(((S)-(1-cyclopropyl-1H-1,2,3-triazo1-4-yl)(4-fluorophenyl)methyl-d)amino)quinolin-4-yl)amino)cyclohexyl) carbamate] | 
> 10 µM | 0.337 µM | [2H][C@](Nc1cc(Cl)c2ncc(C#N)c(N[C@H]3CCCC[C@H]3N)c2c1)(c1ccc(F)cc1)c1cn(C2CC2)nn1 [Example 230, 4-(((1S,2R)-2-aminocyclohexyl)amino)-8-chloro-6-(((S)-(1-cyclopropyl-1H-1,2,3-triazol-4-yl)(4-fluorophenyl)methyl-d)amino)quinoline-3-carbonitrile] | 
2.44 µM | 0.215 µM | [2H][C@](Nc1cc(C2CC2)c2ncc(C#N)c(NCC(C)(C)C)c2c1)(c1ccc(F)cc1)c1cn(C2CC2)nn1 [Example 232, (S)-8-cyclopropyl-6-(((1-cyclopropyl-1H-1,2,3-triazol-4-yl)(4-fluorophenyl)methyl-d)amino)-4-(neopentylamino)quinoline-3-carbonitrile] | 
0.259 µM | 0.005 µM | [2H][C@](Nc1cc(Cl)c2ncc(C#N)c(NCC(C)(C)C)c2c1)(c1cccc(C#N)c1)c1cn(C(C)(C)C)nn1 [Example 233, (S)-6-(((1-(tert-butyl)-1H-1,2,3-triazol-4-yl)(3-cyanophenyl)methyl-d)amino)-8-chloro-4-(neopentylamino)quinoline-3-carbonitrile] | 
5.63 µM | 0.523 µM | [2H][C@](Nc1cc(Cl)c2ncc(C#N)c(N[C@H]3CCCC[C@@H]3CO)c2c1)(c1ccc(F)cc1)c1cn(C2CC2)nn1 [Example 234, 8-chloro-6-(((S)-(1-cyclopropyl-1H-1,2,3-triazol-4-yl)(4-fluorophenyl)methyl-d)amino)-4-(((1S,2S)-2-(hydroxymethyl)cyclohexyl)amino) quinoline-3-carbonitrile] | 
≥ 10 µM | 0.605 µM | [2H][C@](Nc1cc(Cl)c2ncc(C#N)c(N[C@@H]3CCCC[C@H]3CO)c2c1)(c1ccc(F)cc1)c1cn(C2CC2)nn1 [Example 235, 8-chloro-6-(((S)-(1-cyclopropyl-1H-1,2,3-triazol-4-yl)(4-fluorophenyl)methyl-d)amino)-4-(((1R,2R)-2-(hydroxymethyl)cyclohexyl)amino) quinoline-3-carbonitrile] | 
6.63 µM | 0.294 µM | [2H][C@](Nc1cc(Cl)c2ncc(C#N)c(N[C@H]3CCCC[C@@H]3O)c2c1)(c1ccc(F)cc1)c1cn(C2CC2)nn1 [Example 236, 8-chloro-6-(((S)-(1-cyclopropyl-1H-1,2,3-triazol-4-yl)(4-fluorophenyl)methyl-d)amino)-4-(((1S,2S)-2-hydroxycyclohexyl)amino) quinoline-3-carbonitrile] | 
0.162 µM | 0.012 µM | [2H][C@@](Nc1cc(Cl)c2ncc(C#N)c(NCC(C)(C)C)c2c1)(c1cn(C2CC2)nn1)c1ccccc1C(F)F [Example 238, (S)-8-chloro-6-(((1-cyclopropyl-1H-1,2,3-triazol-4-yl)(2-(difluoromethyl)phenyl)methyl-d)amino)-4-(neopentylamino)quinoline-3-carbonitrile] | 
0.055 µM | 0.002 µM | [2H]C([2H])(Nc1c(C#N)cnc2c(Cl)cc(N[C@@]([2H])(c3cccc(C#N)c3)c3cn(C4CC4)nn3)cc12)C(C)(C)C [Example 239, (S)-8-chloro-6-(((3-cyanophenyl)(1-cyclopropyl-1H-1,2,3-triazol-4-yl)methyl-d)amino)-4-((2,2-dimethylpropyl-1,1-d2)amino)quinoline-3-carbonitrile] | 
0.071 µM | 0.001 µM | [2H][C@](Nc1cc(C#N)c2ncc(C#N)c(NCC(C)(C)C)c2c1)(c1cccc(C#N)c1)c1cn(C2CC2)nn1 [Example 240, (S)-6-(((3-cyanophenyl)(1-cyclopropyl-1H-1,2,3-triazol-4-yl)methyl-d)amino)-4-(neopentylamino)quinoline-3,8-dicarbonitrile] | 
5.08 µM | 0.951 µM | [2H][C@](Nc1cc(Cl)c2ncc(C#N)c(NC3(C)CC3)c2c1)(c1ccc(F)cc1)c1cn(C2CC2)nn1 [Example 241, (S)-8-chloro-6-(((1-cyclopropyl-1H-1,2,3-triazol-4-yl)(4-fluorophenyl)methyl-d)amino)-4-((1-methylcyclopropyl)amino) quinoline-3-carbonitrile] | 
0.041 µM | 0.002 µM | [2H][C@](Nc1cc(C#N)c2ncc(C#N)c(N[C@H](CC)c3ccccc3)c2c1)(c1cccc(C#N)c1)c1cn(C2CC2)nn1 [Example 243, 6-(((S)-(3-cyanophenyl)(1-cyclopropyl-1H-1,2,3-triazol-4-yl)methyl-d)amino)-4-(((R)-1-phenylpropyl)amino)quinoline-3,8-dicarbonitrile] | 
5.69 µM | 0.576 µM | [2H][C@](Nc1cc(Cl)c2ncc(C#N)c(N[C@@H](C)C(C)(C)C)c2c1)(c1ccc(F)cc1)c1cn(C2CC2)nn1 [Example 244, 8-chloro-6-(((S)-(1-cyclopropyl-1H-1,2,3-triazol-4-yl)(4-fluorophenyl)methyl-d)amino)-4-(((S)-3,3-dimethylbutan-2-yl)amino)quinoline-3-carbonitrile] | 
0.557 µM | 0.046 µM | [2H][C@](Nc1cc(Cl)c2ncc(C#N)c(NC34CC5CC(CC(C5)C3)C4)c2c1)(c1ccc(F)cc1)c1cn(C2CC2)nn1 [Example 245, 4-(((3R,5R,7R)-adamantan-1-yl)amino)-8-chloro-6-(((S)-(1-cyclopropyl-1H-1,2,3-triazol-4-yl)(4-fluorophenyl)methyl-d)amino)quinoline-3-carbonitrile] | 
0.49 µM | 0.019 µM | [2H][C@](Nc1cc(Cl)c2ncc(C#N)c(NC3C4CC5CC(C4)CC3C5)c2c1)(c1ccc(F)cc1)c1cn(C2CC2)nn1 (stereo partly drawn) [Example 246, 4-(((1S,3S,5S,7S)-adamantan-2-yl)amino)-8-chloro-6-(((S)-(1-cyclopropyl-1H-1,2,3-triazol-4-yl)(4-fluorophenyl)methyl-d)amino)quinoline-3-carbonitrile] | 
0.635 µM | 0.028 µM | [2H][C@](Nc1cc(Cl)c2ncc(C#N)c(N[C@H](CC#N)C(C)(C)C)c2c1)(c1ccc(F)cc1)c1cn(C2CC2)nn1 [Example 247, 8-chloro-4-(((R)-1-cyano-3,3-dimethylbutan-2-yl)amino)-6-(((S)-(1-cyclopropyl-1H-1,2,3-triazol-4-yl)(4-fluorophenyl)methyl-d)amino)quinoline-3-carbonitrile] | 

Structure (SMILES) | EC50 [1, 3] | IC50 [2] | EC50 [1]
[2H][C@](Nc1cc(Cl)c2ncc(C#N)c(NCC[Si](C)(C)C)c2c1)(c1ccc(F)cc1)c1cn(C2CC2)nn1 [Example 237, (S)-8-chloro-6-(((1-cyclopropyl-1H-1,2,3-triazol-4-yl)(4-fluorophenyl)methyl-d)amino)-4-((2-(trimethylsilyl)ethyl)amino) quinoline-3-carbonitrile] |  | 0.231 µM | 5.12 µM
